In PubChem BioAssay (NCI) one finds GI50 and TGI data, which are given here for 11 compounds.

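48-hour exposure; five concentrations; linearly interpolated endpoints. GI50 marks 50% less growth. TGI is the concentration that stops growth completely.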

Among the test systems are EKVX NSCLC; HOP-92 NSCLC; HT29 colon; IGROV1 ovarian; KM12 colon; NCI-H23 lung; NCI-H522 lung; OVCAR-4 ovarian; OVCAR-8 ovarian; SK-OV-3 ovarian.
Common to all, as to assay: NCI tumour cell line growth inhibition, 48 h

For `CCOc1ccc(-n2cc(-c3ccc(N(C)C)cc3)[n+]3c2CCCCC3)cc1`, the GI50 is 0.244 µM in the test on EKVX NSCLC; 1.14 µM in the test on HOP-92 NSCLC; 0.609 µM in the test with HT29 colon; 0.923 µM in the test on IGROV1 ovarian; 0.168 µM with KM12 colon; 0.0935 µM with NCI-H23 lung. Moreover, the GI50 with NCI-H522 lung was 0.125 µM; with OVCAR-4 ovarian, 0.103 µM; with OVCAR-8 ovarian, 1.34 µM; in the test with SK-OV-3 ovarian, 1.61 µM. Besides, the TGI in the test with EKVX NSCLC was more than 100 µM; in the test on HOP-92 NSCLC it was 6.43 µM; in the test with HT29 colon, more than 24.7 µM; with IGROV1 ovarian, more than 100 µM; with KM12 colon, 27.8 µM; in the test with NCI-H23 lung, more than 43 µM. In addition, the TGI in the test on NCI-H522 lung was 3.91 µM; in the test with OVCAR-4 ovarian, more than 100 µM; with OVCAR-8 ovarian, more than 100 µM; in the test on SK-OV-3 ovarian, 7.41 µM.
Turning to `Nc1ncnc2c1c(-c1ccc(Oc3ccccc3)cc1)nn2C[C@H]1SSC[C@H]1O`, the GI50 in the test on EKVX NSCLC is 0.309 µM; in the test with HOP-92 NSCLC, 2.03 µM; in the test with HT29 colon, 0.179 µM; in the test with IGROV1 ovarian, 0.455 µM; with KM12 colon it was 0.0618 µM; with NCI-H23 lung, 0.242 µM. Besides, the GI50 with NCI-H522 lung was 0.953 µM; in the test with OVCAR-4 ovarian, 1.15 µM; in the test on OVCAR-8 ovarian it was 1.09 µM; with SK-OV-3 ovarian it was 0.222 µM. For the same compound, the TGI worked out at 1.73 µM in the test with EKVX NSCLC; 7.31 µM with HOP-92 NSCLC; 1.48 µM in the test with HT29 colon; 2.47 µM with IGROV1 ovarian; 2.22 µM in the test with KM12 colon; 0.968 µM with NCI-H23 lung. The TGI in the test with NCI-H522 lung is 3.16 µM; with OVCAR-4 ovarian it was more than 100 µM; in the test on OVCAR-8 ovarian, 3.87 µM; in the test with SK-OV-3 ovarian, 1.31 µM.
For the compound `COc1ccc(-n2cc(-c3ccc(F)cc3)[nH]c2=O)cc1OC`, the GI50 in the test on EKVX NSCLC was more than 100 µM; in the test on HOP-92 NSCLC it was 79.1 µM; with HT29 colon it was more than 100 µM; with IGROV1 ovarian it was more than 100 µM; in the test with KM12 colon, more than 100 µM; with NCI-H23 lung, more than 100 µM. The GI50 in the test with NCI-H522 lung was more than 100 µM; with OVCAR-4 ovarian, more than 100 µM; in the test with OVCAR-8 ovarian, 82.1 µM; in the test on SK-OV-3 ovarian it was more than 100 µM. Also, the TGI in the test with EKVX NSCLC, in the test with HOP-92 NSCLC, in the test with HT29 colon, in the test with IGROV1 ovarian, in the test on KM12 colon and in the test with NCI-H23 lung was more than 100 µM each time. Moreover, the TGI in the test with NCI-H522 lung, in the test with OVCAR-4 ovarian, in the test with OVCAR-8 ovarian and in the test with SK-OV-3 ovarian was more than 100 µM each time.
For the compound `O=CN/C=C\c1cc(O)ccc1O`, the TGI is 32.9 µM with EKVX NSCLC; 28 µM with HOP-92 NSCLC; more than 31.6 µM in the test on HT29 colon; more than 58.4 µM in the test on IGROV1 ovarian; more than 100 µM with KM12 colon; more than 56.1 µM in the test on NCI-H23 lung. The TGI with NCI-H522 lung is 10 µM; in the test with OVCAR-4 ovarian it was 26.8 µM; with OVCAR-8 ovarian it was 32.1 µM; in the test on SK-OV-3 ovarian, more than 100 µM.
For the compound `Cn1c(=O)ccc2cc(C(=O)c3ccccc3)ccc21`, the TGI in the test on EKVX NSCLC, in the test with HOP-92 NSCLC, in the test on HT29 colon, in the test on IGROV1 ovarian, with KM12 colon and in the test on NCI-H23 lung was more than 100 µM each time. For the same compound, the TGI with NCI-H522 lung is 82.7 µM; with OVCAR-4 ovarian it was more than 100 µM; in the test on OVCAR-8 ovarian, more than 100 µM; with SK-OV-3 ovarian, more than 100 µM.
`Cc1cccc(C)c1NC(=O)/C(CC(=O)CC(c1ccccc1)c1c(O)c2ccccc2oc1=O)=N/O` (stereo not given): the TGI with EKVX NSCLC, in the test with HOP-92 NSCLC, with HT29 colon, in the test with IGROV1 ovarian, in the test on KM12 colon and in the test with NCI-H23 lung was more than 100 µM in each case. The TGI in the test on NCI-H522 lung, with OVCAR-4 ovarian, in the test with OVCAR-8 ovarian and in the test on SK-OV-3 ovarian was more than 100 µM in each case.
Regarding `CN=C(NC#N)NCc1ccccc1`, the TGI in the test with EKVX NSCLC, with HOP-92 NSCLC, with HT29 colon, with IGROV1 ovarian, in the test on KM12 colon and with NCI-H23 lung was more than 100 µM each time. The TGI in the test with NCI-H522 lung, with OVCAR-4 ovarian, in the test on OVCAR-8 ovarian and in the test with SK-OV-3 ovarian was more than 100 µM in each case.
As for `NCCCSCC(=O)O`, the TGI in the test on EKVX NSCLC, in the test with HOP-92 NSCLC, with HT29 colon, with IGROV1 ovarian, with KM12 colon and in the test on NCI-H23 lung was more than 100 µM in each case. Further, the TGI in the test on NCI-H522 lung, in the test on OVCAR-4 ovarian, in the test on OVCAR-8 ovarian and in the test with SK-OV-3 ovarian was more than 100 µM each time.
Regarding `CCC1(O)CC(c2ccccc2)N(C)C(c2ccccc2)C1` (stereo not given), the TGI in the test with EKVX NSCLC, in the test with HOP-92 NSCLC, in the test on HT29 colon, in the test on IGROV1 ovarian, with KM12 colon and in the test on NCI-H23 lung was more than 100 µM throughout. Also, the TGI in the test with NCI-H522 lung, in the test with OVCAR-4 ovarian, in the test on OVCAR-8 ovarian and with SK-OV-3 ovarian was more than 100 µM each time.
On to `O=C(c1ccccc1)C(c1ccccc1)C1(O)C(=O)Nc2ccc(Br)cc21` (stereo not given), for which the TGI in the test on EKVX NSCLC, in the test on HOP-92 NSCLC, with HT29 colon, in the test with IGROV1 ovarian, with KM12 colon and with NCI-H23 lung was more than 100 µM throughout. Further, the TGI in the test on NCI-H522 lung was 59.6 µM; with OVCAR-4 ovarian it was more than 100 µM; in the test on OVCAR-8 ovarian, more than 100 µM; in the test on SK-OV-3 ovarian it was more than 100 µM.
Take `CCOC(=O)/C(C#N)=C/c1[nH]c(C)c(C)c1C`: the TGI in the test with EKVX NSCLC, in the test with HOP-92 NSCLC, in the test with HT29 colon, with IGROV1 ovarian, with KM12 colon and in the test on NCI-H23 lung was more than 100 µM each time. In addition, the TGI in the test with NCI-H522 lung, in the test on OVCAR-4 ovarian, in the test on OVCAR-8 ovarian and with SK-OV-3 ovarian was more than 100 µM each time.
